Patent publication US6545049B1, “Dimer-selective RXR modulators and methods for their use” (Ligand Pharmaceuticals Incorporated, priority 1995, dated 2003)

Legend:
RXRα [1] = target: T1, RXRα (Homo sapiens, UniProt P19793); assay: RXR binding, RXRα; conditions: -v- tritiated LGD1069 and tritiated 9-cis retinoic acid
T1 sequence (P19793 1-462): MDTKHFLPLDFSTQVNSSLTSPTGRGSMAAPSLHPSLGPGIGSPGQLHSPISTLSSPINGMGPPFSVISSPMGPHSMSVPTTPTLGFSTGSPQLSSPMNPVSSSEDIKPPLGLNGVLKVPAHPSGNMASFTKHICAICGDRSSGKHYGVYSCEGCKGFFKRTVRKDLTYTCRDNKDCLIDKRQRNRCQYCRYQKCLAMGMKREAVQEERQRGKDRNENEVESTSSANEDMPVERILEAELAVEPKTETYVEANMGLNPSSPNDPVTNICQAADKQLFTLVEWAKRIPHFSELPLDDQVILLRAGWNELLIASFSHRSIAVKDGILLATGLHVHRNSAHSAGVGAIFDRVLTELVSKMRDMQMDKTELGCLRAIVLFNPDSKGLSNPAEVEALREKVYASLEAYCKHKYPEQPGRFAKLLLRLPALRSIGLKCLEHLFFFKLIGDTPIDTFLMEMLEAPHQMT
Procedure: (§1) Non-specific binding was defined as that binding remaining in the presence of 500 nM of the appropriate unlabelled compound. At the end of the incubation period, bound from free ligand were separated. The amount of bound tritiated retinoids was determined by liquid scintillation counting of an aliquot (700 μL) of the supernatant fluid or the hydroxylapatite pellet.
(§2) After correcting for non-specific binding, IC50 values were determined. […] The IC50 value was determined graphically from a log-logit plot of the data. The Kd values were determined by application of the Cheng-Prussof equation to the IC50 values, the labeled ligand concentration and the Kd of the labeled ligand.

RXRβ [2] = target: T2, RXRβ (Mus musculus, UniProt P28704); assay: RXR binding, RXRβ; conditions: -v- tritiated LGD1069 and tritiated 9-cis retinoic acid
T2 sequence (P28704 1-520): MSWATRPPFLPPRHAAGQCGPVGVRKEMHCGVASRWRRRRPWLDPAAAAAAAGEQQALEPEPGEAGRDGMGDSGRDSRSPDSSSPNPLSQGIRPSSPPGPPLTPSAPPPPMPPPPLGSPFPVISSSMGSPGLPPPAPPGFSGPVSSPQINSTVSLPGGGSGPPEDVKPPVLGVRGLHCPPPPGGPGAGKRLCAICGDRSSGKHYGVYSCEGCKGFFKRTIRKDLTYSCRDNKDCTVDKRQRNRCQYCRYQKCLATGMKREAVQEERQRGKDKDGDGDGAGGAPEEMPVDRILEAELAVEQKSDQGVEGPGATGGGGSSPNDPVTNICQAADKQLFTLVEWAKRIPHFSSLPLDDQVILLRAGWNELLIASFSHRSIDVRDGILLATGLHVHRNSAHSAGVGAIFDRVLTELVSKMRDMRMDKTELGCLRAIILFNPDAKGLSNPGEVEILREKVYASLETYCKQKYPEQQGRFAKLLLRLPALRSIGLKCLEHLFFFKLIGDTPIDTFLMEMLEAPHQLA
Procedure: as §1, §2

RXRγ [3] = target: T3, RXRγ (Mus musculus, UniProt P28705); assay: RXR binding, RXRγ; conditions: -v- tritiated LGD1069 and tritiated 9-cis retinoic acid
T3 sequence (P28705 1-463): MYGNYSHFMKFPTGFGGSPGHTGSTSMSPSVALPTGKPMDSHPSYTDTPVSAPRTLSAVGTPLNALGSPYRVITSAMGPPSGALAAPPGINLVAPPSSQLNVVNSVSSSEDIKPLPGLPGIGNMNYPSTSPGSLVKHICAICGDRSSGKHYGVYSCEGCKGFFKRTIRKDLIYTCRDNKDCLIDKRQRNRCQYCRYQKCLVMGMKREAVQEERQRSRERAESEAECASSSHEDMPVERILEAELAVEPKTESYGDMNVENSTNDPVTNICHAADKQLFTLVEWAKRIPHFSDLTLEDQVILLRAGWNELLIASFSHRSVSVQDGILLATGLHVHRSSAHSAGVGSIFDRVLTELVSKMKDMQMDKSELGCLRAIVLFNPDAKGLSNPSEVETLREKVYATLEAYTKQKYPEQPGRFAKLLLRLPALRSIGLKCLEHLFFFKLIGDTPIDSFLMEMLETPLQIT
Procedure: as §1, §2

RXRα [4] = target: T1, RXRα; assay: RXR homodimer co-transfection assay, antagonist mode, RXRα; conditions: read-out: RXRα Potency IC50; antagonist potency in the presence of the known RXR agonist LGD1069; CV-1 cells
RXRβ [5] = target: T2, RXRβ; assay: RXR homodimer co-transfection assay, antagonist mode, RXRβ; conditions: read-out: RXRβ Potency IC50; antagonist potency in the presence of the known RXR agonist LGD1069; CV-1 cells
RXRγ [6] = target: T3, RXRγ; assay: RXR homodimer co-transfection assay, antagonist mode, RXRγ; conditions: read-out: RXRγ Potency IC50; antagonist potency in the presence of the known RXR agonist LGD1069; CV-1 cells
RXRα:PPARα heterodimer = target: T4, RXRα:PPARα heterodimer (Homo sapiens, UniProt P19793); assay: RXR heterodimer co-transfection assay (RXRα and PPARα, PPARα response element reporter)
T4 sequence (P19793 1-462): T1 sequence (P19793 1-462)
T4 sequence (Q07869 1-468 partner): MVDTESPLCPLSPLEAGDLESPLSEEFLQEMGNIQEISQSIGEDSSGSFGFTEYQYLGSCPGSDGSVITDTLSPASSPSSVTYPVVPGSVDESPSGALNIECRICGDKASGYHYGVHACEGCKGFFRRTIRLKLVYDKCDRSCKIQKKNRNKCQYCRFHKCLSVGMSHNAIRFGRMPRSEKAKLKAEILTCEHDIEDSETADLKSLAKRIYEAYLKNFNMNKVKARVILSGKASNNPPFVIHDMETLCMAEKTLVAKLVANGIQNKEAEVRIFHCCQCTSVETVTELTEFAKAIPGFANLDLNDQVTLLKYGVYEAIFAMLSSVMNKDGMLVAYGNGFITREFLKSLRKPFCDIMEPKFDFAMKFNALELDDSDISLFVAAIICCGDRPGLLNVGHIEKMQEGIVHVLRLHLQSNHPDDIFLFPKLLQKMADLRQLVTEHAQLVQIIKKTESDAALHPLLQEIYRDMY

Row | Compound | EC50 (RXRα:PPARα heterodimer) [nM] | Fold activation (RXRα:PPARα heterodimer; normalized luciferase values at 10−5M divided by values with vehicle) [fold] | Fold activation (RXRα:PPARα heterodimer; normalized luciferase values at 10−4M (clofibric acid) divided by values with vehicle) [fold] | Kd (RXRα [1]) [nM] | Kd (RXRβ [2]) [nM] | Kd (RXRγ [3]) [nM] | IC50 (RXRα [4]) [nM] | IC50 (RXRβ [5]) [nM] | IC50 (RXRγ [6]) [nM]
1 | 4-[(3-propoxy-5,6,7,8-tetrahydro-5,5,8,8-tetramethyl-2-naphthyl)carbonyl]benzoic acid oxime [Compound 109] |  |  |  | 37 | 33 | 47 | 210 | 193 | 394
2 | (2E, 4E)-7-[(5,5,8,8-tetramethyl-3-propyloxy-5,6,7,8-tetrahydronaphthalen-2-yl)cyclopropan-1-yl]-3-methyl heptadienoic acid [Compound 155] |  |  |  | 9 | 9 | 8 | 24 | 53 | 37
3 | (2E, 4E)-7-[(5,5,8,8-tetramethyl-3-heptyloxy-5,6,7,8-tetrahydronaphthalen-2-yl)cyclopropan-1-yl]-3-methyl heptadienoic acid [Compound 156] |  |  |  | 11 | 7 | 9 | 18 | 62 | 47
4 | 4-[(3-n-propyl-5,6,7,8-tetrahydro-5,5,8,8-tetramethyl-2-naphthyl)ethenyl]benzoic acid [Compound 102] |  |  |  | 282 | 426 | 683 | 386 | 659 | 1670
5 | CCCOc1cc2c(cc1C1CC1C/C=C/C(C)=C/C(=O)O)C(C)(C)CCC2(C)C (stereo not shown) [Compound 152, (2E, 4E)-6-[2-(5,5,8,8-tetramethyl-3-propyloxy-5,6,7,8-tetrahydronaphthalen-2-yl)cyclopropan-1-yl]-3-methyl hexadienoic acid] |  |  |  | 8 | 45 | 21 | 195 | 337 | 428
6 | CCCc1cc2c(cc1C1(c3ccc(C(=O)O)cc3)CC1)C(C)(C)CCC2(C)C [Compound 103, 4-[(3-n-propyl-5,6,7,8-tetrahydro-5,5,8,8-tetramethyl-2-naphthyl)cyclopropyl]benzoic acid] |  |  |  | 389 | 846 | 936 | 498 | 701 | 1670
7 | 4-[(3-propoxy-5,6,7,8-tetrahydro-5,5,8,8-tetramethyl-2-naphthyl)carbonyl]benzoic acid O-methyloxime [Compound 110] |  |  |  | 40 | 77 | 66 | 80 | 217 | 211

Continued, in another order:

Row | EC50 (RXRα:PPARα heterodimer) [nM] | Fold activation (RXRα:PPARα heterodimer; normalized luciferase values at 10−5M divided by values with vehicle) [fold] | Fold activation (RXRα:PPARα heterodimer; normalized luciferase values at 10−4M (clofibric acid) divided by values with vehicle) [fold] | Compound | Kd (RXRα [1]) [nM] | Kd (RXRβ [2]) [nM] | Kd (RXRγ [3]) [nM] | IC50 (RXRα [4]) [nM] | IC50 (RXRβ [5]) [nM] | IC50 (RXRγ [6]) [nM]
8 | 200 | 4 |  | CC(C=CC=C(C)c1cc2c(cc1OCc1ccccc1)C(C)(C)CCC2(C)C)=CC(=O)O [Compound 128, (2E, 4E, 6Z)-7-[3-benzyloxy-5,6,7,8-tetrahydro-5,5,8,8-tetramethyl-2-naphthalen-2-yl]-3-methylocta-2,4,6-trienoic acid] | 9 | 23 | 27 |  |  | 
9 | 40000 |  | 6.5 | CC(C)(Oc1ccc(Cl)cc1)C(=O)O [Clofibric acid, clofibric acid, reference compound] |  |  |  |  |  | 
